Five compounds from patent US11091471B2, “Isoxazolyl ether derivatives as GABAA α5 PAM” (Hoffmann-La Roche Inc., priority 2016, dated 2021) can be followed below.

In assay [1] the target is T1, h-GABA-A α5β3γ2 (Homo sapiens (Human), UniProt P18507+P31644). Description: Two-electrode voltage clamp electrophysiology in Xenopus oocytes expressing GABAA receptors, modulation of GABA EC20 current. The format is cell-based. The settings on record: Table 1; GABA at EC20, test compound at approx. 30 fold its Ki, Xenopus oocytes. As to the method: Xenopus laevis oocytes at maturation stages V-VI were used for the expression of cloned mRNA encoding GABAA receptor subunits. Oocytes ready for RNA micro-injection were bought from Ecocyte, Castrop-Rauxel, Germany and stored in modified Barth's medium (composition in mM: NaCl 88, KCl 1, NaHCO3 2.4, HEPES 10, MgSO4 0.82, CaNO3 0.33, CaCl2 0.33, pH=7.5) at 20° C. until the experiment.
Oocytes were plated in 96-well plates to be used in an automated instrument (Robo-ocyte, MultiChannelSystems, Reutlingen, Germany) for microinjection and electrophysiological recordings. Approximately 50 nl of an aqueous solution containing the RNA transcripts for the subunits of the desired GABAA receptor was injected into each oocyte.
Electrophysiological experiments were performed on days 3 to 5 after the micro-injection of mRNA. During the experiment the oocytes were constantly superfused by a solution containing (in mM) NaCl 90, KCl 1, HEPES 5, MgCl2 1, CaCl2 1 (pH 7.4). Oocytes were impaled by two glass microelectrodes (resistance: 0.4 MΩ) which were filled with a solution containing KCl 1M+K-acetate 1.5 M and voltage-clamped to −80 mV. The recordings were performed at room temperature using the Roboocyte two-electrode voltage clamp system (Multichannelsystem). After an initial equilibration period of 1.5 min GABA was added for 1.5 min at a concentration evoking approximately 20% of a maximal current response (EC20). After another rest interval of 2.5 min GABA was again added evoking a response of similar amplitude and shape. […] Current traces were recorded at a digitization rate of 10 Hz during and shortly before and after the GABA application.
Each compound and concentration was tested on at least 3 oocytes.
For the analysis, the digitized current traces of the first and second GABA response were superimposed and, if necessary, rescaled to equal maximal amplitudes. The ratio between the two responses during the time interval of test compound application was calculated point by point. The extremum of the resulting “ratio trace” was taken as the efficacy (“Fold increase”) of the compound expressed as “% modulation of GABA EC20” (100*(Fold increase−1)).
A general note: In two-electrode clamp one electrode senses voltage and the other passes current.

The target of assay [2] is T1, h-GABA-A α5β3γ2. Put plainly: [3H]flumazenil competition binding assay, membranes of HEK293 cells expressing human GABAA receptors. The conditions noted are these: Table 1, displacement of [3H]-Flumazenil 0.5 nM, mean of two determinations. Here is the method: The affinity of compounds at GABAA receptor subtypes was measured by competition for [3H]flumazenil (85 Ci/mmol; Roche) binding to HEK293 cells expressing rat (stably transfected) or human (transiently transfected) receptors of composition α1β3γ2, α2β3γ2, α3β3γ2 and α5β3γ2.
Cell pellets were suspended in Krebs-tris buffer (4.8 mM KCl, 1.2 mM CaCl2, 1.2 mM MgCl2, 120 mM NaCl, 15 mM Tris; pH 7.5; binding assay buffer), homogenized by polytron for ca. 20 sec on ice and centrifuged for 60 min at 4° C. (50000 g; Sorvall, rotor: SM24=20000 rpm). The cell pellets were resuspended in Krebs-tris buffer and homogenized by polytron for ca. 15 sec on ice. Protein was measured (Bradford method, Bio-Rad) and aliquots of 1 mL were prepared and stored at 80° C.
Assays were incubated to equilibrium for 1 hour at 4° C. and harvested onto GF/C uni-filters (Packard) by filtration using a Packard harvester and washing with ice-cold wash buffer (50 mM Tris; pH 7.5). After drying, filter-retained radioactivity was detected by liquid scintillation counting. Ki values were calculated using Excel-Fit (Microsoft) and are the means of two determinations.
Background: Displacement assays read how much labelled ligand stays bound in the presence of the test substance.

pKi: −log10 of the molar value.

The pKi is the negative decadic logarithm of the Ki, by convention in mol/L. A lower pKi goes with a large Ki. With `CO[C@@H]1CC[C@@H](NC(=O)c2ccc(OCc3c(-c4ccc(C)nc4)noc3C)nn2)C1` (racemic) [Example 166, trans-N-((1RS,3RS)-3-methoxycyclopentyl)-6-((5-methyl-3-(6-methylpyridin-3-yl)isoxazol-4-yl)methoxy)pyridazine-3-carboxamide], the “Fold increase h-GABA-A α5β3γ2 oocyte” value on h-GABA-A α5β3γ2 [1] was determined as 1.7. The pKi on h-GABA-A α5β3γ2 [2] was 8.12.

In the case of `Cc1ccc(-c2noc(C)c2COc2ccc(C(=O)N[C@H]3CCCC[C@H]3O)nn2)cn1` [Example 23, N-((1S,2R)-2-hydroxycyclohexyl)-6-((5-methyl-3-(6-methylpyridin-3-yl)isoxazol-4-yl)methoxy)pyridazine-3-carboxamide], on h-GABA-A α5β3γ2 [1], the “Fold increase h-GABA-A α5β3γ2 oocyte” value is recorded as 1.89. Also, the pKi at h-GABA-A α5β3γ2 [2] was 7.69.

Take `Cc1ccc(-c2nocc2COc2ccc(C(=O)NC3CCOCC3)cn2)cn1` [Example 44, 6-((3-(6-methyl-3-pyridyl)isoxazol-4-yl)methoxy)-N-tetrahydropyran-4-yl-pyridine-3-carboxamide]: the “Fold increase h-GABA-A α5β3γ2 oocyte” value at h-GABA-A α5β3γ2 [1] amounted to 1.54. The same compound gave a pKi at h-GABA-A α5β3γ2 [2] of 7.12.

Take `Cc1ccc(-c2noc(C)c2COc2ccc(C(=O)N3C[C@@H]4C[C@H]3CO4)nn2)cn1` [Example 151, (1S,4S)-2-oxa-5-azabicyclo[2.2.1]heptan-5-yl(6-((5-methyl-3-(6-methylpyridin-3-yl)isoxazol-4-yl)methoxy)pyridazin-3-yl)methanone]: the “Fold increase h-GABA-A α5β3γ2 oocyte” value at h-GABA-A α5β3γ2 [1] turned out to be 1.68. In addition, the negative logarithm of the Ki (pKi) at h-GABA-A α5β3γ2 [2] was 7.34.

Take `O=C(N[C@H]1CCOC1)c1ccc(OCc2c(-c3ccc(Cl)nc3)noc2C2CC2)nn1` [Example 179, (S)-6-((3-(6-chloropyridin-3-yl)-5-cyclopropylisoxazol-4-yl)methoxy)-N-(tetrahydrofuran-3-yl)pyridazine-3-carboxamide]: the “Fold increase h-GABA-A α5β3γ2 oocyte” value at h-GABA-A α5β3γ2 [1] came to 1.82. The same compound gave a pKi on h-GABA-A α5β3γ2 [2] of 7.37.
